Source: ChEMBL document CHEMBL4311976, “Design, synthesis and biological evaluation of novel 7H-pyrrolo[2,3-d]pyrimidine derivatives as potential FAK inhibitors and anticancer agents” (Eur J Med Chem, 2019)

What was measured:
Assay in all cases: cells
A549 = conditions: Homo sapiens, A549, 72 h
Description: Antiproliferative activity against human A549 cells assessed as reduction in cell viability after 72 hrs by MTT assay

MDA-MB-231 = conditions: Homo sapiens, MDA-MB-231, 72 h
Description: Antiproliferative activity against human MDA-MB-231 cells assessed as reduction in cell viability after 72 hrs by MTT assay

HK-2 = conditions: Homo sapiens, HK-2, 72 h
Description: Cytotoxicity against human HK2 cells assessed as reduction in cell viability after 72 hrs by MTT assay

Structure (SMILES) | IC50 (A549) [µM] | IC50 (MDA-MB-231) [µM] | IC50 (HK-2) [µM]
CP(C)(=O)c1ccccc1Nc1nc(Nc2cnn(C3CCOCC3)c2)nc2[nH]ccc12 | 7.01 | 5.53 | 14.4
CCNS(=O)(=O)c1ccc(Nc2nc(Nc3ccccc3P(C)(C)=O)c3cc[nH]c3n2)cc1 | 1.02 | 1.31 | 4.77
CNC(=O)c1ccc(Nc2nc(Nc3ccccc3P(C)(C)=O)c3cc[nH]c3n2)cc1 | 3.45 | 4.17 | 9.16
CP(C)(=O)c1ccccc1Nc1nc(Nc2ccc(C(=O)NC3CCOCC3)cc2)nc2[nH]ccc12 | 3.72 | 6.53 | 9.75
COCCn1cc(Nc2nc(Nc3ccccc3P(C)(C)=O)c3cc[nH]c3n2)cn1 | 17.4 | 8.18 | > 25
CP(C)(=O)c1ccccc1Nc1nc(Nc2ccc(C(=O)NC3CCNCC3)cc2)nc2[nH]ccc12 | 2.93 | 17.8 | > 25
COc1cc(C(=O)NC2CCNCC2)c(F)cc1Nc1nc(Nc2ccccc2P(C)(C)=O)c2cc[nH]c2n1 | 2.24 | 11.3 | > 25

The remaining compounds from weak to strong by IC50 (A549), led by results:

IC50 (A549) [µM] | IC50 (MDA-MB-231) [µM] | IC50 (HK-2) [µM] | Structure (SMILES)
14.5 | 14.1 | > 25 | CP(C)(=O)c1ccccc1Nc1nc(Nc2cnn(C3CCNCC3)c2)nc2[nH]ccc12
9.88 | 8.8 | > 25 | CP(C)(=O)c1ccccc1Nc1nc(Nc2ccc(C(=O)N3CCNCC3)cc2)nc2[nH]ccc12
9.8 | 14.3 | 8.89 | CP(C)(=O)c1ccccc1Nc1nc(Nc2ccc(C(=O)N3CCOCC3)cc2)nc2[nH]ccc12
7.53 | 3.43 | 4.4 | CP(C)(=O)c1ccccc1Nc1nc(Nc2cnn(CC(F)F)c2)nc2[nH]ccc12
2.48 | 12.4 | > 25 | CP(C)(=O)c1ccccc1Nc1nc(Nc2ccc(C(=O)N[C@H]3CCCNC3)cc2)nc2[nH]ccc12
1.61 | 4.17 | 21.9 | CP(C)(=O)c1ccccc1Nc1nc(Nc2ccc(C(=O)NC3CCNCC3)c(F)c2)nc2[nH]ccc12
1.02 | 4.24 | 8.2 | CNC(=O)c1ccccc1Nc1nc(Nc2ccc(N3CCOCC3)cc2OC)ncc1Cl
0.53 | 4.35 | 8.33 | CP(C)(=O)c1ccccc1Nc1nc(Nc2ccc(N3CCNCC3)cc2)nc2[nH]ccc12
